Measured values: the kinase profiling compilation of Christmann-Franck et al. (2016)

Experiments:
Experiment in all cases: Caliper, Mobility shift assay off-chip
SPHK2 (human) = SPHK2 (human) (UniProt Q9NRA0)
TNK1 (human) = TNK1 (human) (UniProt Q13470)
MAPKAPK5 (human) = MAPKAPK5 (human) (UniProt Q8IW41)
NUAK2 (human) = NUAK2 (human) (UniProt Q9H093)
CDC7 (human) = CDC7 (human) (UniProt O00311)
HCK (human) = HCK (human) (UniProt P08631)
PLK1 (human) = PLK1 (human) (UniProt P53350)
BMX (human) = BMX (human) (UniProt P51813)
MKNK1 (human) = MKNK1 (human) (UniProt Q9BUB5)
MKNK1 (human), sequence (Q9BUB5 whole entry, looked up): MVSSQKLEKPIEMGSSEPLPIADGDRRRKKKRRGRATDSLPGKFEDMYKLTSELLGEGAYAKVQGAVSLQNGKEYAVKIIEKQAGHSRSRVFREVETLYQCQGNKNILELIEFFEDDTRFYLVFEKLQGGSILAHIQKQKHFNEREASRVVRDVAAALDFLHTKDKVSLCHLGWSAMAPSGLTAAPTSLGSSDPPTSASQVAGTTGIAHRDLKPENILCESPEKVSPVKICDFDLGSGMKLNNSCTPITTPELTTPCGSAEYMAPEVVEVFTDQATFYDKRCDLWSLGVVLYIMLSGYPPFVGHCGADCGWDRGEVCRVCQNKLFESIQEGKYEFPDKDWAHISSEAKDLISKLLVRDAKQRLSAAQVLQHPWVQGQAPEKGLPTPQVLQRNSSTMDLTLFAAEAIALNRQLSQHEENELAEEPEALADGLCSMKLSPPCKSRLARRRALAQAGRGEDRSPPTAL

MARK4 (human) = MARK4 (human) (UniProt Q96L34)
YES1 (human) = YES1 (human) (UniProt P07947)
PAK7 (human) = PAK7 (human) (UniProt Q9P286)
MAPK7 (human) = MAPK7 (human) (UniProt Q13164)
PRKCE (human) = PRKCE (human) (UniProt Q02156)
MAPK10 (human) = MAPK10 (human) (UniProt P53779); details: compound 0.2 µM
EPHA5 (human) = EPHA5 (human) (UniProt P54756)
PAK2 (human) = PAK2 (human) (UniProt Q13177)
MKNK2 (human) = MKNK2 (human) (UniProt Q9HBH9)
FLT1 (human) = FLT1 (human) (UniProt P17948)
TYRO3 (human) = TYRO3 (human) (UniProt Q06418)
MERTK (human) = MERTK (human) (UniProt Q12866)
CIT (human) = CIT (human) (UniProt O14578)
CIT (human), sequence (O14578 whole entry, looked up): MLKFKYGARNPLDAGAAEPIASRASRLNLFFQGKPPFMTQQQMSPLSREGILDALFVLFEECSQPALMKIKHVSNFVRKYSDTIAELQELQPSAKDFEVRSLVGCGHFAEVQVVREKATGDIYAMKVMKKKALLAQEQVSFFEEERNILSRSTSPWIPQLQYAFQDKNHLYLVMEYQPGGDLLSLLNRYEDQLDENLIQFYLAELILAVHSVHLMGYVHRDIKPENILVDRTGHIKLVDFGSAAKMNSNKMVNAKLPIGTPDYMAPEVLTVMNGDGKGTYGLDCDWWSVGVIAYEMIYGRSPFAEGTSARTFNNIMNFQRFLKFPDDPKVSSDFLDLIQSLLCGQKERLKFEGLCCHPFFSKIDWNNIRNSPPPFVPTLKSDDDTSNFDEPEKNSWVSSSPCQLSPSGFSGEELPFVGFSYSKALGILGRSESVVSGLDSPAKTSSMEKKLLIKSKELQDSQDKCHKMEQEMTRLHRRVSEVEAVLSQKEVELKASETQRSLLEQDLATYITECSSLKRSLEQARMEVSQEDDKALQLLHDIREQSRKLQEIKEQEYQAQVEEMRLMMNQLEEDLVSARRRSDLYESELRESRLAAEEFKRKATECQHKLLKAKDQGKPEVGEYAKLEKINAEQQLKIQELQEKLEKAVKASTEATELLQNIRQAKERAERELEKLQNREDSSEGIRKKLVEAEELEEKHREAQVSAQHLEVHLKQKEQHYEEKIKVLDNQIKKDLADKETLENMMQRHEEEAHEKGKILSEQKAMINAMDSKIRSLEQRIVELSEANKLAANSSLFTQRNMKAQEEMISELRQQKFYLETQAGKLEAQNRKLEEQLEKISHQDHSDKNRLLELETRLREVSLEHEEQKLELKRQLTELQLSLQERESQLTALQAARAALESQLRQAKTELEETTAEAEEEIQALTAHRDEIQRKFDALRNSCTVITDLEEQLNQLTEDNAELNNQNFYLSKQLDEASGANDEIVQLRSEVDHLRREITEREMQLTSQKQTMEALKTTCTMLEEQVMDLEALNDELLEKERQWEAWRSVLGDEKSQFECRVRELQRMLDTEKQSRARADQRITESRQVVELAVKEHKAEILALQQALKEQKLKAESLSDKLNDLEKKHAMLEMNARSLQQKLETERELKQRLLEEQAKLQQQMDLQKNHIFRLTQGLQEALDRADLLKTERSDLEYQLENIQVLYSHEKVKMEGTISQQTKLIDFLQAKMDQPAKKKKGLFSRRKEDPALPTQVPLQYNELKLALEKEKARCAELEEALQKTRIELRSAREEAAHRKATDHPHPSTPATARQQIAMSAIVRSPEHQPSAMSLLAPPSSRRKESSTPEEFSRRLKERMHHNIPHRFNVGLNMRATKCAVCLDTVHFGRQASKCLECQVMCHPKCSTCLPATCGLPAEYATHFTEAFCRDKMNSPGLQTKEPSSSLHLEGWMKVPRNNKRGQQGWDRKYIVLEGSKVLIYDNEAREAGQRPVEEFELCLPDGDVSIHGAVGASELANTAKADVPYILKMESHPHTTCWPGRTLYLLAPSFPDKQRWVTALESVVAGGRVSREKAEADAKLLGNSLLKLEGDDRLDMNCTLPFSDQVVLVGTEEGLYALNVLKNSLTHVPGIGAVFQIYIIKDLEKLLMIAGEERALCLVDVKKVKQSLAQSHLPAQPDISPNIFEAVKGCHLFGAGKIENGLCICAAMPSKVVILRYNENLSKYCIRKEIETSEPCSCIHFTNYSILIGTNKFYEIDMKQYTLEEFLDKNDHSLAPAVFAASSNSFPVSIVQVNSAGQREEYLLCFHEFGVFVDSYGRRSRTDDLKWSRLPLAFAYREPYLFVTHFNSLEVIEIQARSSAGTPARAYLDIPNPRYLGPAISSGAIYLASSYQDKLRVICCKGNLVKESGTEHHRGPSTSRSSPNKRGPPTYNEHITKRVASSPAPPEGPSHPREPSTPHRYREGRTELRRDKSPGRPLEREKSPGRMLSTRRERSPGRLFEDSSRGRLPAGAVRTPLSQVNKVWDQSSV

DDR1 (human) = DDR1 (human) (UniProt Q08345)
DDR1 (human), sequence (Q08345 whole entry, looked up): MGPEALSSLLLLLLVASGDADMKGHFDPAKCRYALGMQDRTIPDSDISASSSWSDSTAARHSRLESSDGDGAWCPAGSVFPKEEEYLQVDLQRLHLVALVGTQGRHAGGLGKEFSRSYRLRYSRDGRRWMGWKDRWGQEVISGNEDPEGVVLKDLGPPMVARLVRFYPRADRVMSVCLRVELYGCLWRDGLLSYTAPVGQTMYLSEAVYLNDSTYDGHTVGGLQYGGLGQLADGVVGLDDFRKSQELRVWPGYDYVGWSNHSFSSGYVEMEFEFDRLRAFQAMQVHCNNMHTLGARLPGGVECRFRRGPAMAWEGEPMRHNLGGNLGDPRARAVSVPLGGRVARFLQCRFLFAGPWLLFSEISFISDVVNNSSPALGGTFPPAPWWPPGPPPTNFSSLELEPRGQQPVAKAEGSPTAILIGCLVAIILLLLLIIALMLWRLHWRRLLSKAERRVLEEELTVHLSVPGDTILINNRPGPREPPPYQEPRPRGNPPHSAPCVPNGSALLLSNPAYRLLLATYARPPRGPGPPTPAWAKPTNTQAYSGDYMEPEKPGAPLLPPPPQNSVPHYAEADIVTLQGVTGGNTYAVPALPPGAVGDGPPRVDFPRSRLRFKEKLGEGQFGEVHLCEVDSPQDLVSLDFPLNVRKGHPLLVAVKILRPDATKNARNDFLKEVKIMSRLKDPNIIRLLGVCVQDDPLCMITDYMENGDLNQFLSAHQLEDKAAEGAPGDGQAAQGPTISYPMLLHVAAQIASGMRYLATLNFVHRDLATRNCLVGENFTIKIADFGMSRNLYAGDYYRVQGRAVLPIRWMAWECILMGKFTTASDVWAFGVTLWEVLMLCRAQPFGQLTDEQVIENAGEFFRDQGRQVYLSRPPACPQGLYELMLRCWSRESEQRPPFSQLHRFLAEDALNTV

CDK3 (human) = CDK3 (human) (UniProt Q00526)
CDK3 (human), sequence (Q00526 whole entry, looked up): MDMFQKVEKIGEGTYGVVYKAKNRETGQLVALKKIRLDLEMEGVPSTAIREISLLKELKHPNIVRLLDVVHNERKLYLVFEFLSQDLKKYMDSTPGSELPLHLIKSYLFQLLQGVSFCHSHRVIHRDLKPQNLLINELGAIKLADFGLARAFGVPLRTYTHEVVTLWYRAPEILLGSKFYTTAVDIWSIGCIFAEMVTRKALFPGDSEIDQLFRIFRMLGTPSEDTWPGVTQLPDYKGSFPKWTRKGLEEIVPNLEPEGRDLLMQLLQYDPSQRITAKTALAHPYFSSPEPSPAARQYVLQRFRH

RET (human) = RET (human) (UniProt P07949)
PDGFRA (human) = PDGFRA (human) (UniProt P16234); details: compound 0.2 µM
PRKCQ (human) = PRKCQ (human) (UniProt Q04759)
EPHB2 (human) = EPHB2 (human) (UniProt P29323)
FGR (human) = FGR (human) (UniProt P09769); details: compound 0.2 µM
CAMK2G (human) = CAMK2G (human) (UniProt Q13555)
TEC (human) = TEC (human) (UniProt P42680)
PAK4 (human) = PAK4 (human) (UniProt O96013)
PAK4 (human), sequence (O96013 whole entry, looked up): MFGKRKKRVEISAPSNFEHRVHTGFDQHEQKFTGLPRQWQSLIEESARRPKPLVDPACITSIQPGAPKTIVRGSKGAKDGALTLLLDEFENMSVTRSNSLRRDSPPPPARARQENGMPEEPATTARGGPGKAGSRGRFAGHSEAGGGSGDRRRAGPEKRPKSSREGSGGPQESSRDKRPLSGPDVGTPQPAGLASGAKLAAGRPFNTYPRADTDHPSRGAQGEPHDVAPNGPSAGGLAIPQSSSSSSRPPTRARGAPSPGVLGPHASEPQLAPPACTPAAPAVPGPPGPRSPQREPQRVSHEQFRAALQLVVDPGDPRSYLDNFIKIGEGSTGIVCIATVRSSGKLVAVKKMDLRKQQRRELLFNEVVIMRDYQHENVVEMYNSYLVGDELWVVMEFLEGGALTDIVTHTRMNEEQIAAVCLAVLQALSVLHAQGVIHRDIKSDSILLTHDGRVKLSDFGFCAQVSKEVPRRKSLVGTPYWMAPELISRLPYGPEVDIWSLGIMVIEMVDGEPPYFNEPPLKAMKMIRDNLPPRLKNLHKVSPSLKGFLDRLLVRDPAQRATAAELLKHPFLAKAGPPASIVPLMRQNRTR

HIPK2 (human) = HIPK2 (human) (UniProt Q9H2X6)

MAPKAPK5 (human), sequence (Q8IW41 whole entry, looked up): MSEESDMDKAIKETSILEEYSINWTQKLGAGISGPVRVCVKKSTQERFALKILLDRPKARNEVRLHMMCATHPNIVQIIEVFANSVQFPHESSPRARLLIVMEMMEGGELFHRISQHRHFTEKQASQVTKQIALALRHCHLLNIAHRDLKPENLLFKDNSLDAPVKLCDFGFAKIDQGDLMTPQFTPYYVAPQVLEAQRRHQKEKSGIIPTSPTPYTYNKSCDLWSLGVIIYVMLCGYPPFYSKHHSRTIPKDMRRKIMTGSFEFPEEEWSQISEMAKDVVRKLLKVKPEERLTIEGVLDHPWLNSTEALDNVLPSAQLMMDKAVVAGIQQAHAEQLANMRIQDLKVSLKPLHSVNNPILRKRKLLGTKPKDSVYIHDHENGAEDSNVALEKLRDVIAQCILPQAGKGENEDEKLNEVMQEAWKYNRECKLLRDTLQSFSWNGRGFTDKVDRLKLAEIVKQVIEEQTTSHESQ

## CCN(CC)CCNC(=O)c1c(C)[nH]c(/C=C2\C(=O)Nc3ccc(F)cc32)c1C
SPHK2 (human); compound 0.2 µM
  inhibition: -6.9%
SPHK2 (human); compound 4.0 µM
  inhibition: 4.7%
TNK1 (human); compound 0.2 µM
  inhibition: 32.1%
TNK1 (human); compound 4.0 µM
  inhibition: 88.4%
MAPKAPK5 (human); compound 0.2 µM
  inhibition: 6%
MAPKAPK5 (human); compound 4.0 µM
  inhibition: 45.2%
NUAK2 (human); compound 0.2 µM
  inhibition: 55.7%
NUAK2 (human); compound 4.0 µM
  inhibition: 95.3%
CDC7 (human); compound 0.2 µM
  inhibition: 0.9%
CDC7 (human); compound 4.0 µM
  inhibition: 4.9%
HCK (human); compound 0.2 µM
  inhibition: 38%
HCK (human); compound 4.0 µM
  inhibition: 94.6%
PLK1 (human); compound 0.2 µM
  inhibition: -3.4%
PLK1 (human); compound 4.0 µM
  inhibition: 5.8%
BMX (human); compound 0.2 µM
  inhibition: -0.5%
BMX (human); compound 4.0 µM
  inhibition: 22.4%
MKNK1 (human); compound 0.2 µM
  inhibition: 7.4%
MKNK1 (human); compound 4.0 µM
  inhibition: 30.3%
MARK4 (human); compound 0.2 µM
  inhibition: 76.3%
MARK4 (human); compound 4.0 µM
  inhibition: 100%
YES1 (human); compound 0.2 µM
  inhibition: 96.9%
YES1 (human); compound 4.0 µM
  inhibition: 101%
PAK7 (human); compound 0.2 µM
  inhibition: 20.1%
PAK7 (human); compound 4.0 µM
  inhibition: 77.7%
MAPK7 (human); compound 0.2 µM
  inhibition: -5.7%
MAPK7 (human); compound 4.0 µM
  inhibition: 28.8%
PRKCE (human); compound 0.2 µM
  inhibition: 4.4%
PRKCE (human); compound 4.0 µM
  inhibition: 11%
MAPK10 (human)
  inhibition: -2.3%
EPHA5 (human); compound 0.2 µM
  inhibition: 6.7%
EPHA5 (human); compound 4.0 µM
  inhibition: 50.8%
PAK2 (human); compound 0.2 µM
  inhibition: 1.8%
PAK2 (human); compound 4.0 µM
  inhibition: 7.7%
MKNK2 (human); compound 0.2 µM
  inhibition: 3.2%
MKNK2 (human); compound 4.0 µM
  inhibition: 28%
FLT1 (human); compound 0.2 µM
  inhibition: 90.4%
FLT1 (human); compound 4.0 µM
  inhibition: 103%
TYRO3 (human); compound 0.2 µM
  inhibition: 82.2%
TYRO3 (human); compound 4.0 µM
  inhibition: 100%
MERTK (human); compound 0.2 µM
  inhibition: 96%
MERTK (human); compound 4.0 µM
  inhibition: 104%
CIT (human); compound 0.2 µM
  inhibition: 2.2%
CIT (human); compound 4.0 µM
  inhibition: 29.1%
DDR1 (human); compound 0.2 µM
  inhibition: 71.8%
DDR1 (human); compound 4.0 µM
  inhibition: 96.6%
CDK3 (human); compound 0.2 µM
  inhibition: 0.3%
CDK3 (human); compound 4.0 µM
  inhibition: 36.6%
RET (human); compound 0.2 µM
  inhibition: 99.2%
RET (human); compound 4.0 µM
  inhibition: 103%
PDGFRA (human)
  inhibition: 100%
PRKCQ (human); compound 0.2 µM
  inhibition: 1.3%
PRKCQ (human); compound 4.0 µM
  inhibition: 31.2%
EPHB2 (human); compound 0.2 µM
  inhibition: 22.2%
EPHB2 (human); compound 4.0 µM
  inhibition: 79.1%
FGR (human)
  inhibition: 63.4%
CAMK2G (human); compound 0.2 µM
  inhibition: 49.6%
CAMK2G (human); compound 4.0 µM
  inhibition: 96.2%
TEC (human); compound 0.2 µM
  inhibition: 7.6%
TEC (human); compound 4.0 µM
  inhibition: 31.6%
PAK4 (human); compound 0.2 µM
  inhibition: 16.2%
PAK4 (human); compound 4.0 µM
  inhibition: 62.8%
HIPK2 (human); compound 0.2 µM
  inhibition: 74.2%
HIPK2 (human); compound 4.0 µM
  inhibition: 99.3%
